Experimental data published in patent US9822127B2, “GAK modulators as antivirals” (Katholieke Universiteit Leuven, priority 2014, dated 2017).
≈ marks a conversion by molar mass, not a printed value. Read-outs that look alike come from different tables or passages of the source.

Legend:
GAK = target: T1, GAK (Homo sapiens, UniProt O14976); assay: GAK binding assay (T7 phage kinase competition binding); conditions: for % Ctrl: 10 µM; for remaining binding at 10 µM: read-out: % Ctrl
T1 construct: made in house; host or cells: T7 phage grown in E. coli host derived from BL21
T1 sequence (O14976 1-1311): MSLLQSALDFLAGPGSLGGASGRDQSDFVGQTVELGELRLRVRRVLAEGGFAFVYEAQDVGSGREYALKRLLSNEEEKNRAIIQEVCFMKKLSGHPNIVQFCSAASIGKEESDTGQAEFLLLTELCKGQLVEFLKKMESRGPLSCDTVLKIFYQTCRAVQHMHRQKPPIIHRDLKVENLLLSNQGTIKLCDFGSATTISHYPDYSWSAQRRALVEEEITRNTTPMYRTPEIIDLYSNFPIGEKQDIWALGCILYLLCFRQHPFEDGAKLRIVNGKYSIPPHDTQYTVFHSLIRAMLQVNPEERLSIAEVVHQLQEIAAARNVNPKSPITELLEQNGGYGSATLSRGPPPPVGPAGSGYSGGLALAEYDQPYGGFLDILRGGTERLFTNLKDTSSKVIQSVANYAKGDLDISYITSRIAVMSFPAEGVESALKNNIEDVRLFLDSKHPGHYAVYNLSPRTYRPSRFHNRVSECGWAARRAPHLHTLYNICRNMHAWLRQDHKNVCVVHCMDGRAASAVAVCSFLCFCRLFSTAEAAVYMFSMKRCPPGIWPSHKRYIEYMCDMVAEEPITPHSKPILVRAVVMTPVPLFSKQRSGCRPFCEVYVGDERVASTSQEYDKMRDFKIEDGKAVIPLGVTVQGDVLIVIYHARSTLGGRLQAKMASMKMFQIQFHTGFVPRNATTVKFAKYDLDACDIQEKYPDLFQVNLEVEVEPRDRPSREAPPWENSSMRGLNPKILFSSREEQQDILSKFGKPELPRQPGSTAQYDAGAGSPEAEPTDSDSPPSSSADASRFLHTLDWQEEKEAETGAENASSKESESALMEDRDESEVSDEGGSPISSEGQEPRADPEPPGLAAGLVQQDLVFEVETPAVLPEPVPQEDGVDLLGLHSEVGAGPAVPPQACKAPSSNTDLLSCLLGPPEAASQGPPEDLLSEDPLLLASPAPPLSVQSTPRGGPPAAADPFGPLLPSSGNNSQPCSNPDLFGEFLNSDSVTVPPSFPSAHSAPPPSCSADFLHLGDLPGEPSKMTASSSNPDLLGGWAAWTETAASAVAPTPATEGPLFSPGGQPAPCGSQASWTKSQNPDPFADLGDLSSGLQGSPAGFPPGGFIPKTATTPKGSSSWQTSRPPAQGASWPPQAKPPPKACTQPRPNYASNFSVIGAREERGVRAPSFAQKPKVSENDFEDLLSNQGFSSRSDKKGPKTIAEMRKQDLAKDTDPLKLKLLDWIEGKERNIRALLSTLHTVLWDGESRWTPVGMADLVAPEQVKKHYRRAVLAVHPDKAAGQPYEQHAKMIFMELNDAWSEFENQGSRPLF

[1] = test system: SARS Coronavirus (Virus strain: Urbani); assay: microbe, parasite or virus in culture; assay type: cell-based
[2] = Cytotoxicity in CPE assay, Vero76; conditions: African green monkey
Vero76 = conditions: African green monkey
in vitro = conditions: African green monkey
[3] = single concentration of 10 μM, lower numbers indicate stronger hits
[4] = Severe acute respiratory syndrome coronavirus, Vero 76

## 6-bromo-6-ethanolamino-isothiazolo[4,3-b]pyridine [Example 12]
GAK
  % Ctrl: 62%

## Nc1snc2cc(-c3ccccc3)cnc12 [Example 4, 3-amino-6-phenyl-isothiazolo[4,3-b]-pyridine]
GAK; [3]
  remaining binding at 10 µM: 68%

## Nc1snc2cc(-c3cccnc3)cnc12 [Example 5, 3-amino-6-(3-pyridyl)-isothiazolo[4,3-b]pyridine]
GAK; [3]
  remaining binding at 10 µM: 80%

## COc1ccc(-c2cnc3c(N)snc3c2)cc1OC [Example 6, 3-amino-6-(3,4-dimethoxyphenyl)-isothiazolo[4,3-b]pyridine]
GAK; [3]
  remaining binding at 10 µM: 70%

## Nc1snc2cc(-c3ccc(F)cc3)cnc12 [Example 7, 3-amino-6-(4-fluorophenyl)-isothiazolo[4,3-b]pyridine]
GAK; [3]
  remaining binding at 10 µM: 55%

## Nc1snc2cc(-c3ccsc3)cnc12 [Example 8, 3-amino-6-(3-thienyl)-isothiazolo[4,3-b]pyridine]
GAK; [3]
  remaining binding at 10 µM: 61%

## COc1snc2cc(Br)cnc12 [Example 14, 3-methoxy-6-bromo-isothiazolo[4,3-b]pyridine]
GAK; [3]
  % Ctrl: 87%

## c1ccc(-c2cnc3c(N4CCOCC4)snc3c2)cc1 [Example 23, 3-morpholino-6-phenyl-isothiazolo[4,3-b]pyridine]
[1]
  EC50: 4.4 µg/mL (≈ 14.8 µM)
[1]; [4]
  EC50: 4.5 µg/mL (≈ 15.1 µM)
[2]; CC50, Neutral Red
  CC50: 50 µg/mL (≈ 168 µM)
[2]; CC50, Visual
  CC50: 34 µg/mL (≈ 114 µM)
GAK
  Kd: 500 nM
GAK; [3]
  remaining binding at 10 µM: 0.8%

## Fc1ccc(-c2cnc3c(N4CCOCC4)snc3c2)cc1 [Example 24]
GAK; [3]
  remaining binding at 10 µM: 11%

## c1cncc(-c2cnc3c(N4CCOCC4)snc3c2)c1 [Example 25, 3-morpholino-6-(3-pyridyl)-isothiazolo[4,3-b]pyridine]
GAK; [3]
  remaining binding at 10 µM: 25%

## COc1ccc(-c2cnc3c(N4CCOCC4)snc3c2)cc1OC [Example 26]
GAK; [3]
  remaining binding at 10 µM: 0%

## c1cc(-c2cnc3c(N4CCOCC4)snc3c2)cs1 [Example 27]
GAK; [3]
  remaining binding at 10 µM: 0.1%

## OCCNc1snc2cc(-c3cccnc3)cnc12 [Example 28]
GAK; [3]
  remaining binding at 10 µM: 45%

## OCCNc1snc2cc(-c3ccsc3)cnc12 [Example 30, 3-ethanolamino-6-(3-thienyl)-isothiazolo[4,3-b]pyridine]
GAK
  Kd: 300 nM
GAK; [3]
  remaining binding at 10 µM: 0.3%

## OCCNc1snc2cc(-c3ccccc3)cnc12 [Example 31, 3-ethanolamino-6-phenyl-isothiazolo[4,3-b]pyridine]
GAK; [3]
  remaining binding at 10 µM: 18%

## OCCNc1snc2cc(-c3ccc(F)cc3)cnc12 [Example 32, 3-ethanolamino-6-(3-(4-fluorophenyl))-isothiazolo[4,3-b]pyridine]
GAK; [3]
  remaining binding at 10 µM: 2.2%

## COc1snc2cc(-c3ccc(F)cc3)cnc12 [Example 34, 3-methoxy-6-(4-fluoro-phenyl)-isothiazolo[4,3-b]pyridine]
GAK; [3]
  remaining binding at 10 µM: 37%

## COc1snc2cc(-c3cccnc3)cnc12 [Example 35]
GAK
  % Ctrl: 93%

## COc1ccc(-c2cnc3c(OC)snc3c2)cc1OC [Example 36]
GAK
  % Ctrl: 19%

## COc1snc2cc(-c3ccsc3)cnc12 [Example 37]
GAK
  % Ctrl: 22%

## CN1CCN(c2snc3cc(-c4ccccc4)cnc23)CC1 [Example 38]
GAK; [3]
  remaining binding at 10 µM: 76%

## CN1CCN(c2snc3cc(-c4cccnc4)cnc23)CC1 [Example 39, 3-(N-Me-piperazinyl)-6-(3-pyridyl)-isothiazolo[4,3-b]pyridine]
GAK; [3]
  remaining binding at 10 µM: 88%

## COc1ccc(-c2cnc3c(N4CCN(C)CC4)snc3c2)cc1OC [Example 40, 3-(N-Me-piperazinyl)-6-(3,4-dimethoxyphenyl)-isothiazolo[4,3-b]pyridine]
GAK; [3]
  remaining binding at 10 µM: 19%

## CN1CCN(c2snc3cc(-c4ccsc4)cnc23)CC1 [Example 41, 3-(N-Me-piperazinyl)-6-(3-thienyl)-isothiazolo[4,3-b]pyridine]
GAK; [3]
  remaining binding at 10 µM: 7.4%

## CN1CCN(c2snc3cc(-c4ccc(F)cc4)cnc23)CC1 [Example 42, 3-(N-Me-piperazinyl)-6-(4-fluorophenyl)-isothiazolo[4,3-b]pyridine]
GAK; [3]
  remaining binding at 10 µM: 72%

## c1csc(-c2cnc3c(N4CCOCC4)snc3c2)c1 [Example 43, 4-(6-(Thiophen-2-yl)isothiazolo[4,3-b]pyridin-3-yl)morpholine]
GAK
  Kd: 47 nM
GAK; [3]
  remaining binding at 10 µM: 0.05%

## COc1ccc(OC)c(-c2cnc3c(N4CCOCC4)snc3c2)c1 [Example 44, 4-(6-(2,5-Dimethoxyphenyl)isothiazolo[4,3-b]pyridin-3-yl)morpholine]
GAK; [3]
  remaining binding at 10 µM: 0.7%

## COc1ccc(-c2cnc3c(N4CCOCC4)snc3c2)c(OC)c1 [Example 45, 4-(6-(2,4-Dimethoxyphenyl)isothiazolo[4,3-b]pyridin-3-yl)morpholine]
GAK; [3]
  remaining binding at 10 µM: 6.3%

## COc1cc(-c2cnc3c(N4CCOCC4)snc3c2)ccc1OC(C)=O [Example 47, 2-Methoxy-4-(3-morpholinoisothiazolo[4,3-b]pyridin-6-yl)phenyl acetate]
GAK; [3]
  remaining binding at 10 µM: 0%

## COc1cc(OC)cc(-c2cnc3c(N4CCOCC4)snc3c2)c1 [Example 48, 4-(6-(3,5-Dimethoxyphenyl)isothiazolo[4,3-b]pyridin-3-yl)morpholine]
GAK; [3]
  remaining binding at 10 µM: 0.2%

## c1cc2c(cc1-c1cnc3c(N4CCOCC4)snc3c1)OCO2 [Example 51, 4-(6-(Benzo[d][1,3]dioxol-5-yl)isothiazolo[4,3-b]pyridin-3-yl)morpholine]
GAK; [3]
  remaining binding at 10 µM: 51%

## c1cc(-c2cnc3c(N4CCOCC4)snc3c2)co1 [Example 52, 4-(6-(Furan-3-yl)isothiazolo[4,3-b]pyridin-3-yl)morpholine]
[1]
  EC50: 49 µg/mL (≈ 171 µM)
[1]; [4]
  EC50: 44 µg/mL (≈ 153 µM)
GAK; [3]
  remaining binding at 10 µM: 0.15%
Vero76
  CC50: >100 µg/mL
In vitro
  CC50: > 100 µg/mL

## COc1ccc(-c2cnc3c(N4CCSCC4)snc3c2)cc1OC [Example 58, 6-(3,4-dimethoxyphenyl)-3-thiomorpholinoisothiazolo[4,3-b]pyridine]
GAK
  Kd: 230 nM
GAK; [3]
  remaining binding at 10 µM: 0.8%

## COc1cc(-c2cnc3c(N4CCOCC4)snc3c2)ccc1O [Example 64, 2-methoxy-4-(3-morpholinoisothiazolo[4,3-b]pyridin-6-yl)phenol]
[2]; CC50, Neutral Red
  CC50: 0.97 µg/mL (≈ 2.82 µM)
[2]; CC50, Visual
  CC50: 0.42 µg/mL (≈ 1.22 µM)
GAK; [3]
  remaining binding at 10 µM: 0%

## COc1ccc(-c2cnc3c(N4CCC(O)CC4)snc3c2)cc1OC [Example 66, 1-(6-(3,4-dimethoxyphenyl)-isothiazolo[4,3-b]pyridin-3-yl)piperidin-4-ol]
[1]
  EC50: 38 µg/mL (≈ 102 µM)
[1]; [4]
  EC50: 50 µg/mL (≈ 135 µM)
Vero76
  CC50: >100 µg/mL
In vitro
  CC50: > 100 µg/mL

## COc1ccc(-c2cnc3c(N(CCO)CCO)snc3c2)cc1OC [Example 70, 2,2′-(6-(3,4-dimethoxyphenyl)isothiazolo[4,3-b]pyridin-3-ylazanediyl)diethanol]
GAK
  Kd: 320 nM
GAK; [3]
  remaining binding at 10 µM: 4%

## COc1ccc(-c2cnc3c(N4CCCC4)snc3c2)cc1OC [Example 73, 6-(3,4-dimethoxyphenyl)-3-(pyrrolidin-1-yl)isothiazolo[4,3-b]pyridine]
GAK
  Kd: 100 nM
GAK; [3]
  remaining binding at 10 µM: 0%

## COc1ccc(-c2cnc3c(NCCc4ccccc4)snc3c2)cc1OC [Example 74, 6-(3,4-dimethoxyphenyl)-N-phenethylisothiazolo[4,3-b]pyridin-3-amine]
[1]
  EC50: 5.8 µg/mL (≈ 14.8 µM)
[1]; [4]
  EC50: 4.5 µg/mL (≈ 11.5 µM)
GAK; [3]
  remaining binding at 10 µM: 81%
Vero76
  CC50: >100 µg/mL
In vitro
  CC50: > 100 µg/mL

## COc1ccc(-c2cnc3c(NCC4CC4)snc3c2)cc1OC [Example 76, N-(cyclopropylmethyl)-6-(3,4-dimethoxyphenyl)isothiazolo[4,3-b]pyridin-3-amine]
[1]
  EC50: 0.54 µg/mL (≈ 1.58 µM)
[1]; [4]
  EC50: 0.86 µg/mL (≈ 2.52 µM)
[2]; CC50, Neutral Red
  CC50: 33 µg/mL (≈ 96.7 µM)
[2]; CC50, Visual
  CC50: 18 µg/mL (≈ 52.7 µM)
GAK
  Kd: 27 nM
GAK; [3]
  remaining binding at 10 µM: 0%
